Experimental findings from patent US20190327974A1, “SYNERGISTS FOR IMPROVED PESTICIDES” (priority 2017, published 2019) are described below.

Read-outs that look alike come from different tables or passages of the source.

One experiment has as its target T1, wildtype LcαE7 (Lucilia cuprina, UniProt Q25252).
T1 sequence (Q25252 1-570): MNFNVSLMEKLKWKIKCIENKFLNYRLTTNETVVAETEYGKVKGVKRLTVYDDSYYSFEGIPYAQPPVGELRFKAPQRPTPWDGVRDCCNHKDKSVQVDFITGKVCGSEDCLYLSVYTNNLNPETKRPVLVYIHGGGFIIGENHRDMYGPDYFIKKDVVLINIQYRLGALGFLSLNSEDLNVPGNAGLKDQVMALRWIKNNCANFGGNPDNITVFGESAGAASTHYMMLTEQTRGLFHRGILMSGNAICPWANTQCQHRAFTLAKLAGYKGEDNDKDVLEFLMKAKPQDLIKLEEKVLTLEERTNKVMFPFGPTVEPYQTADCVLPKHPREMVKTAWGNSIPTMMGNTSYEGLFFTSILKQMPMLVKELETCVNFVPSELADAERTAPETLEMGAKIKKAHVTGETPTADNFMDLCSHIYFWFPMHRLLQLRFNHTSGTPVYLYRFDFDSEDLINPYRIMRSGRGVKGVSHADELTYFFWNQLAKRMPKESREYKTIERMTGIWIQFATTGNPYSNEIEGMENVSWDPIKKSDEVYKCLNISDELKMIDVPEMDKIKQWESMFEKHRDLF
The experiment is described as follows: Enzyme inhibition assay with 4-nitrophenol butyrate, wild-type. It is filed as biochemical. As to the method: (§1) Wild-type LcαE7 was heterologously expressed in Escherichia coli and purified using metal ion affinity and size exclusion chromatography. The potency of the boronic acids was determined by enzymatic assays of recombinant LcαE7 with the model carboxylester substrate 4-nitrophenol butyrate.
(§2) Inhibition of wild-type αE7 and the Gly137Asp αE7 variant was determined by a competition assay between the native-substrate analogue 4-nitrophenol butyrate (Sigma) and the boronic acid compounds. Initially, the Michalis constant (KM) with 4-nitrophenol butyrate was measured for both enzymes to determine an appropriate concentration of substrate for use in the competition assays. Formation of the 4-nitrophenolate product of hydrolysis was monitored at 405 nm in the presence of enzyme and eight different concentrations of substrate. 4-nitrophenol butyrate was prepared in methanol to 100 mM and serially diluted 1-in-2 to achieve concentrations from 100 mM to 0.8 mM. Enzyme stocks were prepared in 4 mg/ml bovine serum albumin (Sigma) to maintain enzyme stability. Reactions were prepared by pipetting 178 μl assay buffer (100 mM NaCl, 20 mM HEPES pH 7.5) and 2 μl substrate (final concentrations of 1000 to 8 μM) into 300 μl wells of a 96-well plate. The reaction was initiated by the addition of 20 μl enzyme (final concentration 2.5 nM for wildtype αE7 and 4 nM for Gly137Asp αE7). Product formation was monitored for four minutes at room temperature using an Epoch microplate spectrophotometer (BioTek) and the initial rates of ester hydrolysis were determined by linear regression using GraphPad Prism. The Michalis constant was determined by fitting the initial rates to the Michalis-Menton equation (FIG. 10).
Enzyme inhibition with the boronic acid compounds was determined by assaying the initial rate of 4-nitrophenol butyrate hydrolysis in the presence of either neat DMSO or the boronic acid compounds in DMSO. Compounds were prepared by serially diluting 1-in-3 an initial 10 mM stock to achieve concentrations from 10 mM to 2 nM. Reactions were prepared by pipetting 178 μl assay buffer supplemented with substrate to a final concentration equal to the KM of the enzyme (15 μM for wildtype αE7 and 250 μM for Gly137Asp αE7) into wells of a 96-well plate. 2 μl neat DMSO or 2 μl serially diluted inhibitor (final concentrations of 100 μM to 20 pM) were added to the wells. The reaction was initiated by the addition of 20 μl enzyme (final concentration 0.5 nM for wildtype αE7 and 10 nM for Glyl37Asp αE7). Product formation was monitored for four minutes at room temperature and the initial rates of ester hydrolysis were determined by linear regression. To determine the concentration of boronic acid compounds required to inhibit 50% of esterase activity (IC50), a four-parameter sigmoidal dose-response curve was fitted to percentage inhibition using GraphPad Prism (FIGS. 7 and 8). Ki values were determined using the Cheng-Prusoff equation assuming competitive inhibition (Yung-Chi, C. & Prusoff W. H. Relationship between the inhibition constant (KI) and the concentration of inhibitor which causes 50 percent inhibition (150) of an enzymatic reaction. Biochem. Pharmacol. 22, 3099-3108 (1973)).

The target of experiment [1] is T2, wild-type LcαE7 (αE7 carboxylesterase) (Lucilia cuprina, UniProt Q25252).
T2 sequence (Q25252 1-570): T1 sequence (Q25252 1-570)
The experiment is described as follows: Inhibition of wildtype αE7 (competition assay, hydrolysis of 4-nitrophenol butyrate), dose-response curves of FIG. 7. The following applies: 95% confidence interval in brackets; recombinant His6-tagged enzyme from E. coli, 0.5 nM; 4-nitrophenol butyrate 15 μM (= KM); room temperature, pH 7.5, 405 nm; three technical replicates. Type of experiment: biochemical. The protocol: FIG. 7 presents dose-response curves for the inhibition of wildtype αE7. Inhibition of the hydrolysis of […] was determined for phenylboronic acid (PBA) and compounds 1-5 and 3.1-3.12. Three (technical) replicate measurements of enzyme activity were performed for each concentration of boronic acid. The concentration of boronic acid required to inhibit 50% of activity (IC50) was determined by fitting a sigmoidal sigmoidal dose-response curve to plots of percentage inhibition. The curve was constrained to 0 (bottom) and 100% (top) inhibition with a variable Hill slope. […]
as §1
His6-tagged proteins were expressed in BL21(DE3) E. coli (Invitrogen) at 26° C. for 18 hours. Cells were collected by centrifugation, resuspended in lysis buffer (300 mM NaCl, 10 mM imidazole, 50 mM HEPES pH 7.5) and lysed by sonication. Cell debris was pelleted by centrifugation and the soluble fraction was loaded onto a HisTrap-HP Ni-Sepharose column (GE Healthcare). Bound protein was eluted with lysis buffer supplemented with 300 mM imidazole. Fractions containing the eluted protein were concentrated with a 30 kDa molecular mass cutoff centrifuge concentrator (Amicon) and loaded onto a HiLoad 26/60 Superdex-200 size-exclusion column (GE Healthcare) pre-equilibrated with 150 mM NaCl, 20 mM HEPES pH 7.5. Eluted fractions containing the monomeric protein were pooled for enzyme inhibition assays or crystallization. Protein concentration was determined by measuring the absorbance at 280 nm with an extinction coefficient calculated using the Protparam online server (Gasteiger, E. et al. Protein identification and analysis tools on the ExPASy server. Proteomics Protoc. Handb. 571-607 (2005). doi:10.1385/1-59259-890-0:571).
as §2
Enzyme inhibition with the boronic acid compounds was determined by assaying the initial rate of 4-nitrophenol butyrate hydrolysis in the presence of either neat DMSO or the boronic acid compounds in DMSO. Compounds were prepared by serially diluting 1-in-3 an initial 10 mM stock to achieve concentrations from 10 mM to 2 nM. Reactions were prepared by pipetting 178 μl assay buffer supplemented with substrate to a final concentration equal to the KM of the enzyme (15 μM for wildtype αE7 and 250 μM for Gly137Asp αE7) into wells of a 96-well plate. […]

Usually Ki stands for a dissociation constant, usually derived from enzyme kinetics or from competition with a known ligand. A word on the IC50: it is the concentration at which inhibition is half-maximal. Consider `OB(O)c1cc(Br)c2ccccc2c1F` [Compound 3.6], for which the affinity on wildtype LcαE7, expressed as Ki, was 6 nM. The IC50 in experiment [1] was found to be 13 nM.
In the same order, the values of `OB(O)c1cc(Br)cc(Oc2ccccc2)c1` [Compound 3.10, 3-Bromo-5-phenoxyfenylboronic acid] are 0.44 nM and 0.91 nM.
At wildtype LcαE7, `CC(C)(C)Oc1ccc(B(O)O)cc1Br` [Compound 3.12] came in with a Ki of 12 nM. Besides, in experiment [1], the IC50 worked out at 25 nM.
`OB(O)c1cc(Br)cc(OCc2ccccc2)c1` [Compound 3.9] gave a Ki on wildtype LcαE7 of 0.44 nM. The IC50 in experiment [1] was 0.91 nM.
In turn, `Cc1ccc(B(O)O)cc1OCc1ccccc1` [Compound 2] returned a Ki at wildtype LcαE7 of 2.9 nM. Further, the IC50 in experiment [1] was 6.1 nM.
For the compound `OB(O)c1ccccc1` [PBA, phenylboronic acid, reference compound], at wildtype LcαE7, the Ki worked out at 210 nM. In addition, the IC50 in experiment [1] was 430 nM.
For `OB(O)c1cc(Br)cc(OC(F)(F)F)c1` [Compound 3.8] the same measures were 2 nM and 4.2 nM.
Regarding `OB(O)c1cc(Br)cc(N2CCCCC2)c1` [Compound 3.3], at wildtype LcαE7, the affinity corresponds to a Ki of 0.47 nM. The IC50 in experiment [1] turned out to be 0.97 nM.
For `OB(O)c1cc(Br)cc(N2CCCC2)c1` [Compound 3] the same measures were 0.25 nM and 0.52 nM.
In the same order, the values of `OB(O)c1ccc(OCc2ccccc2F)c(Cl)c1` [Compound 5, 3-Chloro-4(2′-fluorobenzyloxy) phenylboronic acid] are 11 nM and 22.4 nM.
`CN1CCN(c2cc(Br)cc(B(O)O)c2)CC1` [Compound 3.4] came in with a Ki on wildtype LcαE7 of 3.8 nM. Also, the IC50 in experiment [1] was 7.8 nM.
At wildtype LcαE7, `OB(O)c1cc(Br)cc2c1OCC2` [Compound 3.5] gave a Ki of 3.4 nM. Besides, the IC50 in experiment [1] was determined as 7.2 nM.
With `OB(O)c1cc(Br)cc(N2CCOCC2)c1` [Compound 3.1], the Ki at wildtype LcαE7 (Cheng-Prusoff from dose-response, 4-nitrophenol butyrate, read-out: Ki wildtype LcαE7) worked out at 0.7 nM. The IC50 in experiment [1] was 1.5 nM.
Take `O=C(c1cc(Cl)cc(B(O)O)c1)N1CCOCC1` [Compound 3.11]: the Ki at wildtype LcαE7 worked out at 5.8 nM. In experiment [1], the IC50 was 12 nM.
Consider `CC(C)Oc1cc(Br)cc(B(O)O)c1` [Compound 3.7, 3-Bromo-5-isopropoxyphenylboronic acid], for which, at wildtype LcαE7, the Ki came to 0.3 nM. The IC50 in experiment [1] stood at 0.62 nM.
For `OB(O)c1ccc2ccccc2c1` [Compound 4] the same measures were 7.2 nM and 15 nM.
For `Cc1ccc(B(O)O)cc1Br` [Compound 1] the same measures were 12 nM and 25 nM.
